Species on record: Rattus norvegicus
Assay: Open TG-GATES - Regimen: Daily Repeat
Type: toxicity, organism-based, Sprague-Dawley
Set-up: regimen Daily Repeat, gender Male, age 6 weeks
Conditions: in vivo, po, 100 mg/kg, […], route gavage, dose level High; for KIDNEY_L / KIDNEY_R / KIDNEY_TOTAL: tissue Kidney; for LIVER: tissue Liver; for A/G / ALP / ALT / AST / BUN / CRE / Ca / Cl / DBIL / GLC / IP / K / LDH / Na / PL / RALB / TBIL / TC / TG / TP / gamma-GTP: tissue Plasma

CC1=C(/C=C/C(C)=C/C=C/C(C)=C/CO)C(C)(C)CCC1 [RETINOL]
Lym (tissue Blood, time 28 day): 60.5%
MCH (tissue Blood, time 28 day): 17.9 pg
MCHC (tissue Blood, time 28 day): 35.2%
MCV (tissue Blood, time 28 day): 50.8 fL
Mono (tissue Blood, time 28 day): 5%
Neu (tissue Blood, time 28 day): 33.5%
PT (tissue Blood, time 28 day): 17.8 s
Plat (tissue Blood, time 28 day): 144.9 x10_4/uL
RBC (tissue Blood, time 28 day): 673 x10_4/ul
Ret (tissue Blood, time 28 day): 2.9%
WBC (tissue Blood, time 28 day): 160.4 x10_2/uL
KIDNEY_L (time 7 day): 1.1 g
KIDNEY_R (time 7 day): 1.1 g
KIDNEY_TOTAL (time 7 day): 2.2 g
KIDNEY_L (time 14 day): 1.1 g
KIDNEY_R (time 14 day): 1.1 g
KIDNEY_TOTAL (time 14 day): 2.2 g
KIDNEY_L (time 28 day): 1 g
KIDNEY_R (time 28 day): 1.1 g
KIDNEY_TOTAL (time 28 day): 2.1 g
LIVER (time 7 day): 11.9 g
LIVER (time 14 day): 11.2 g
LIVER (time 28 day): 9.5 g
A/G (time 7 day): 1
ALP (time 7 day): 2413.2 IU/L
ALT (time 7 day): 47.8 IU/L
AST (time 7 day): 91.4 IU/L
BUN (time 7 day): 16.8 mg/dL
CRE (time 7 day): 0.2 mg/dL
Ca (time 7 day): 11.5 mg/dL
Cl (time 7 day): 104.8 meq/L
DBIL (time 7 day): 0 mg/dL
GLC (time 7 day): 182.6 mg/dL
IP (time 7 day): 8.9 mg/dL
K (time 7 day): 4.3 meq/L
LDH (time 7 day): 266 IU/L
Na (time 7 day): 142.6 meq/L
PL (time 7 day): 162.2 mg/dL
RALB (time 7 day): 2.8 g/dL
TBIL (time 7 day): 0.008 mg/dL
TC (time 7 day): 76.4 mg/dL
TG (time 7 day): 306.2 mg/dL
TP (time 7 day): 5.6 g/dL
gamma-GTP (time 7 day): 1.4 IU/L
A/G (time 14 day): 0.7
ALP (time 14 day): 1719.6 IU/L
ALT (time 14 day): 43.8 IU/L
AST (time 14 day): 99.6 IU/L
BUN (time 14 day): 13.6 mg/dL
CRE (time 14 day): 0.2 mg/dL
Ca (time 14 day): 11.3 mg/dL
Cl (time 14 day): 106.2 meq/L
DBIL (time 14 day): 0 mg/dL
GLC (time 14 day): 186.6 mg/dL
IP (time 14 day): 7.7 mg/dL
K (time 14 day): 4.1 meq/L
LDH (time 14 day): 212.8 IU/L
Na (time 14 day): 141.8 meq/L
PL (time 14 day): 136.2 mg/dL
RALB (time 14 day): 2.1 g/dL
TBIL (time 14 day): 0.002 mg/dL
TC (time 14 day): 67.8 mg/dL
TG (time 14 day): 151.8 mg/dL
TP (time 14 day): 5 g/dL
gamma-GTP (time 14 day): 1.2 IU/L
A/G (time 28 day): 0.6
ALP (time 28 day): 1327.7 IU/L
ALT (time 28 day): 55.3 IU/L
AST (time 28 day): 166.3 IU/L
BUN (time 28 day): 52 mg/dL
CRE (time 28 day): 0.3 mg/dL
Ca (time 28 day): 10.5 mg/dL
Cl (time 28 day): 113 meq/L
DBIL (time 28 day): 0.01 mg/dL
GLC (time 28 day): 225 mg/dL
IP (time 28 day): 9.1 mg/dL
K (time 28 day): 4.1 meq/L
LDH (time 28 day): 685.3 IU/L
Na (time 28 day): 148.3 meq/L
PL (time 28 day): 85 mg/dL
RALB (time 28 day): 1.7 g/dL
TBIL (time 28 day): 0.0233 mg/dL
TC (time 28 day): 43.7 mg/dL
TG (time 28 day): 57.3 mg/dL
TP (time 28 day): 4.4 g/dL
gamma-GTP (time 28 day): 2.3 IU/L
